Experiment [1] deals with Mycobacterium tuberculosis strain EH 4.0 (361.269). The experiment in a line: Test 4: MIC determination against M. tuberculosis, resazurin fluorescence read-out, different strain. Type of experiment: cell-based. The note with it: read-out: pIC50 (converted). An excerpt: Test 4 (See Also Test 1 Above; in this Test a Different Strain of Mycobacterium tuberculosis Strain is Employed)
Appropriate solutions of experimental and reference compounds were made in 96 well plates with 7H9 medium. Samples of Mycobacterium tuberculosis strain EH 4.0 (361.269) were taken from cultures in stationary growth phase. These were first diluted to obtain an optical density of 0.3 at 600 nm wavelength and then diluted 1/100, resulting in an inoculum of approximately 5×10 exp5 colony forming units per well. Plates were incubated at 37° C. in plastic bags to prevent evaporation. After 7 days, resazurin was added to all wells.
For orientation: Alamar Blue is a resazurin reagent that responds to reducing activity.

In experiment [2] the test system is Mycobacterium tuberculosis strain H37Rv. The experiment is described as follows: Test 1: MIC determination against M. tuberculosis, resazurin fluorescence read-out. It is filed as cell-based. The note with it: Test 1, strain H37Rv.
A further experiment relates to M. tuberculosis H37Rv. The note with it: strain H37Rv, inside macrophages; cited from earlier work.
For a further experiment, the system named is MDR tuberculosis. The note with it: stated in J. Medicinal Chemistry, 2014, 57 (12); cited from earlier work.
In experiment [3] the test system is replicating and non-replicating bacteria. The following applies: stated in J. Medicinal Chemistry, 2014, 57 (12); cited from earlier work.

The values below come from patent publication US20180155341A1, “Antibacterial Compounds” (Janssen Sciences Ireland UC, priority 2015, published 2018).

Each structure is given as a SMILES string. Values after ≈ are worked out from the molar mass of the structure shown.

As for `CCc1nc2ccc(Cl)cn2c1C(=O)NCc1ccc2nc(N3CC4CC(F)CC4C3)ccc2c1` (centres unmarked) [Compound 4], the IC50 in experiment [1] is 31.6 nM.

Regarding `CCc1nc2ccc(Cl)cn2c1C(=O)NCc1ccc2nc(N(C)Cc3ccc(OC(F)(F)F)cc3)cnc2c1` [Compound 15], the IC50 in experiment [1] is 631 nM.

Turning to `Cc1nc2sccn2c1C(=O)NCc1ccc2nc(N3CCN(c4ccc(OC(F)(F)F)cc4)CC3)ccc2c1` [Compound 9], the IC50 in experiment [1] is 141 nM.

As to `CCc1nc2ccc(Cl)cn2c1C(=O)NCc1ccc2nc(N3CC4(CC(F)C4)C3)ccc2c1` [Compound 25], the IC50 in experiment [1] was 178 nM.

Take `CCc1nc2ccc(Cl)cn2c1C(=O)NCc1ccc2cc(N(C)Cc3ccc(OC(F)(F)F)cc3)cnc2c1` [Compound 18]: the IC50 in experiment [1] is 1000 nM.

With `CCc1nc2ncc(Cl)cn2c1C(=O)NCc1ccc2nc(N3CC4(CC(c5ccc(OC(F)(F)F)cc5)C4)C3)ccc2c1` [Compound 1], the IC50 in experiment [1] is 39.8 nM.

Regarding `CCc1c(C(=O)NCc2ccc3nc(N4CCC(c5ccc(OC(F)(F)F)cc5)CC4)ccc3c2)c2cc(Cl)cnc2n1C` [Compound 22], in experiment [1], the IC50 was greater than 12600 nM.

For `Cc1nn2ccccc2c1C(=O)NCc1ccc2nc(N3CCN(c4ccc(OC(F)(F)F)cc4)CC3)ccc2c1` [Compound 27], the IC50 in experiment [1] was 794 nM.

As to `CCc1nc2ccc(Cl)cn2c1C(=O)NCc1ccc2nc(N3CCC(F)(F)CC3)ccc2c1` [Compound 24], the IC50 in experiment [1] was 6.31 nM.

With `CCc1nc2ccc(Cl)cn2c1C(=O)NCc1ccc2nc(N(C)Cc3ccc(OC(F)(F)F)cc3)ccc2c1` [Compound 17], the IC50 in experiment [1] was 79.4 nM.

As for `CCc1c(C(=O)NCc2ccc3nc(N4CC5(CC(c6ccccc6)C5)C4)ccc3c2)c2cc(Cl)cnc2n1C` [Compound 12], the IC50 in experiment [1] was greater than 12600 nM.

With `CCc1nc2ccc(Cl)cn2c1C(=O)NCc1ccc2ncc(N(C)Cc3ccc(OC(F)(F)F)cc3)cc2c1` [Compound 20], in experiment [1], the IC50 is 794 nM.

As for `Cc1nc2sccn2c1C(=O)NCc1ccc2nc(N(C)Cc3ccc(OC(F)(F)F)cc3)ccc2c1` [Compound 19], the IC50 in experiment [1] was 282 nM.

With `CCc1c(C(=O)NCc2ccc3nc(N4CC(c5ccccc5)C4)ccc3c2)c2cc(Cl)cnc2n1C` [Compound 13], the IC50 in experiment [1] is greater than 12600 nM.

Take `Cc1nc2sccn2c1C(=O)NCc1ccc2nc(N(C)CCc3ccc(OC(F)(F)F)cc3)ccc2c1` [Compound 11]: the IC50 in experiment [1] is 355 nM.

For `CCc1nc2ccc(Cl)cn2c1C(=O)NCc1ccc2nc(N3CC4(CC(c5ccc(OC(F)(F)F)cc5)C4)C3)ccc2c1` [Compound 2], the IC50 in experiment [2] (first test) is 676 nM; in experiment [2] (repeated (2nd) test) it was 692 nM; in experiment [2] (repeated (3rd) test) it was 589 nM; in experiment [1], 200 nM.

For `Cc1nn2ccccc2c1C(=O)NCc1ccc2nc(N3CCC(c4ccc(OC(F)(F)F)cc4)CC3)ccc2c1` [Compound 26], the IC50 in experiment [1] is 398 nM.

As for `CCc1nc2n(c1C(=O)NCc1ccc3nc(N4CCN(c5ccc(OC(F)(F)F)cc5)CC4)ccc3c1)CCCC2` [Compound 10], in experiment [1], the IC50 was 126 nM.

As to `CCc1nc2n(c1C(=O)NCc1ccc3nc(N4CCC(c5ccc(OC(F)(F)F)cc5)CC4)ccc3c1)CCN(C)C2` [Compound 8], the IC50 in experiment [1] was 158 nM.

For `Cc1nc2sccn2c1C(=O)NCc1ccc2nc(N3CCC(c4ccc(OC(F)(F)F)cc4)CC3)ccc2c1` [Compound 7], the IC50 in experiment [1] is 200 nM.

On to `CCc1nc2ccc(Cl)cn2c1C(=O)NCc1ccc2nc(N3CCC(c4ccc(OC(F)(F)F)cc4)CC3)ccc2c1` [Compound 3], for which the IC50 in experiment [1] is 50.1 nM.

On to `O=C(NCc1ccc2nc(N3CCC(c4ccc(OC(F)(F)F)cc4)CC3)ccc2c1)c1cc2c([nH]1)CCCC2` [Compound 23], for which the IC50 in experiment [1] is greater than 12600 nM.

For the molecule `CCc1nc2ccc(Cl)cn2c1C(=O)NCc1ccc(N2CCC(c3ccc(OC(F)(F)F)cc3)CC2)cc1` [Compound Q203], the MIC50 with M. tuberculosis H37Rv is 0.28 nM (≈ 0.156 ng/mL). In addition, the “activity against MDR tuberculosis” value with MDR tuberculosis is “activity against MDR tuberculosis”. The “activity against replicating and non-replicating bacteria” value in experiment [3] is reported as “highly active”.

As to `CCc1c(C(=O)NCc2ccc3nc(N4CCC(c5ccc(OC(F)(F)F)cc5)CC4)ccc3c2)c2cc(Cl)ccc2n1C` [Compound 21], in experiment [1], the IC50 is greater than 12600 nM.
